Assays:
[1] = Powder flowability experiment (tap density, compression coefficient); assay type: physicochemical
[2] = Dissolution experiment of crystalline form XI capsules (paddle method, pH 4.0 medium); assay type: physicochemical; details: capsules of form XI (Example 12), 900ml, 37℃, 75r/min, UV 250nm
[3] = Impurity stability under storage conditions (HPLC purity after 30 days); assay type: physicochemical; details: high temperature 60℃, high humidity 92.5%, high humidity 75% and light irradiation, sample of Example 11
[4] = Hygroscopicity experiment of crystalline form XI (DVS, dynamic vapour sorption); assay type: physicochemical; details: 25℃, sample of Example 1
[5] = Crystal form stability under storage conditions (XRD, day 0 vs day 30); assay type: physicochemical; details: storage conditions of Table 3 (high temperature 60℃, high humidity 92.5%, high humidity 75%, light irradiation), sample of Example 11
[6] = in vivo; details: rat, po, 1.25 mg/kg

With `COc1cc2nccc(Oc3ccc(NC(=O)NC4CC4)c(Cl)c3)c2cc1C(N)=O` [결정형 C, 렌바티닙 메실레이트] the “compression coefficient (comparison)” value ([1]; compression coefficient (%) = 100% (tap density - bulk density)/tap density, form C (made according to CN100569753C) vs form XI (Example 12)) was “결정형 XI의 압축 계수보다 훨씬 더 높으며”.
With `COc1cc2nccc(Oc3ccc(NC(=O)NC4CC4)c(Cl)c3)c2cc1C(N)=O` [결정형 XI, 렌바티닙 메실레이트, 메실레이트 이수화물] the “flowability (comparison)” value ([1]; form XI (Example 12) vs form C (made according to CN100569753C)) was “결정형 C의 유동성보다 훨씬 우수하며”, the “time at which dissolution is basically complete” value [2] was ~120 min and the “change of purity (HPLC)” value [3] was “큰 변화가 없었다”. The weight loss ([4]; relative humidity 0~40%) was ~0.33%, the “weight gain by moisture absorption” value ([4]; relative humidity 40~80%) was ~0.25% and the “change of crystal form (XRD pattern)” value [5] was “결정형 변화가 없었다”. For the same molecule, the AUC(0-t) at 24 h [6] was 22900 ± 2840 ng·h/mL, the Cmax [6] was 2290 ± 216 ng/mL and the Tmax [6] was 4 ± 1.73 h.
